Experimental findings from US20100305068A1, “COMPOUNDS AND METHODS FOR MODULATING PROTEIN TRAFFICKING” (priority 2006, published 2010) are described below.

Like-named read-outs stand apart in the source and are kept apart here.

In the test the test system is pdr5 ypt1^ts cells. Kind of test: microbe, parasite or virus in culture. In kind it is cell-based, yeast. The note with it: for minimal effective concentration: Saccharomyces cerevisiae, lowest concentration tested giving growth above the 0 μM background, read-out: ypt1-ts MRC (minimal rescue concentration); for minimal effective concentration / optical density, ypt1-ts, 0.39 / optical density, ypt1-ts, 0.78 / optical density, ypt1-ts, 1.56 / optical density, ypt1-ts, 3.13 / optical density, ypt1-ts, 6.25 / optical density, ypt1-ts, 12.5 / optical density, ypt1-ts, 25: Table 2; for optical density, ypt1-ts, 0.39: 0.39 μM compound; for optical density, ypt1-ts, 0.39 / optical density, ypt1-ts, 0.78 / optical density, ypt1-ts, 1.56 / optical density, ypt1-ts, 3.13 / optical density, ypt1-ts, 6.25 / optical density, ypt1-ts, 12.5 / optical density, ypt1-ts, 25: background (0 μM) 0.058; for optical density, ypt1-ts, 0.78: 0.78 μM compound; for optical density, ypt1-ts, 1.56: 1.56 μM compound; for optical density, ypt1-ts, 3.13: 3.13 μM compound; for optical density, ypt1-ts, 6.25: 6.25 μM compound; for optical density, ypt1-ts, 12.5: 12.5 μM compound; for optical density, ypt1-ts, 25: 25 μM compound. In a few lines:
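Whole-cell yeast growth-rescue screen: pdr5 ypt1^ts cells (efflux pump inactivated), growth-arrested at 37° C., cultured with compounds at 37° C. Restoration of growth read by optical density.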

Setting [1] is: Table 3, 3.13 uM compound, 37° C., background (0 uM) 0.077.
[2] abbreviates: Table 3, 12.5 uM compound, 37° C., background (0 uM) 0.077.
[3] abbreviates: Table 3, 50 uM compound, 37° C., background (0 uM) 0.077.

In the case of `CC1=C2C(=CO[C@H](C)[C@H]2C)C(=O)C(C(=O)O)=C1O` [CITRININ], under setting [1], the “optical density, 3.13 uM” value was 0.102. Besides, under setting [2], the “optical density, 12.5 uM” value worked out at 0.158. Also, under setting [3], the “optical density, 50 uM” value was found to be 0.38.

Regarding `Cl.Clc1cccc(Cl)c1N=C1NCCN1` [CLONIDINE HYDRO- CHLORIDE, reference compound], the “optical density, 3.13 uM” value turned out to be 0.237; the “optical density, 12.5 uM” value came to 0.095; the “optical density, 50 uM” value was found to be 0.064.

Regarding `C=C1C(=O)OC2CC1C(OC(C)=O)C/C(C)=C/CC/C(C)=C/CC[C@]2(C)O` (stereo partly shown) [CRASSIN ACETATE], where the note is “37° C.”, the minimal effective concentration amounted to 12.5 µM; the “optical density, ypt1-ts, 0.39” value stood at 0.084; the “optical density, ypt1-ts, 0.78” value was 0.068; the “optical density, ypt1-ts, 1.56” value was 0.075. Further, where the note is “37° C.”, the “optical density, ypt1-ts, 3.13” value turned out to be 0.099; the “optical density, ypt1-ts, 6.25” value is reported as 0.107; the “optical density, ypt1-ts, 12.5” value was 0.324; the “optical density, ypt1-ts, 25” value came to 0.443.

As for `CC1(C)C(=O)C=C[C@@]2(C)C1CC(=O)[C@]1(C)C2CC[C@@]2(C)[C@H](c3ccoc3)OC(=O)[C@H]3O[C@]321` (stereo partly shown) [DEACETOXY- 7-OXOGEDUNIN], the “optical density, 3.13 uM” value under setting [1] is 0.594. The “optical density, 12.5 uM” value under setting [2] was determined as 0.63. Further, the “optical density, 50 uM” value under setting [3] is given as 0.642.

As to `CC1(C)C(=O)C=C[C@@]2(C)C1C[C@@H](O)[C@]1(C)C2CC[C@@]2(C)[C@H](c3ccoc3)OC(=O)[C@H]3O[C@]321` (stereo partly shown) [DEACETYL- GEDUNIN], the “optical density, 3.13 uM” value under setting [1] came to 0.116. Besides, under setting [2], the “optical density, 12.5 uM” value is given as 0.185. Also, under setting [3], the “optical density, 50 uM” value was found to be 0.377.

Turning to `CC(C)c1ccc2c(c1)CCC1C(C)(C(N)=O)CCCC21C` (stereo not shown) [DEHYDRO- ABIETAMIDE], the “optical density, 3.13 uM” value under setting [1] was 0.272. Under setting [2], the “optical density, 12.5 uM” value was found to be 0.419. Further, the “optical density, 50 uM” value under setting [3] turned out to be 0.041.

As to `C=CCCCCCCCCCCC/C=C/C(O)COC(C)=O` (stereo not shown) [DEHYDRO- AVOCATIN - 1-ACETATE], under setting [1], the “optical density, 3.13 uM” value was found to be 0.116. Further, under setting [2], the “optical density, 12.5 uM” value was 0.329. The “optical density, 50 uM” value under setting [3] is given as 0.365.

For `COc1c2occc2cc2c(=O)c3c(oc12)COc1cc2c(cc1-3)OCO2` [DEHYDRO- PACHYRRHIZONE], where the note is “37° C.”, the minimal effective concentration is 12.5 µM; the “optical density, ypt1-ts, 0.39” value came to 0.1; the “optical density, ypt1-ts, 0.78” value came to 0.072; the “optical density, ypt1-ts, 1.56” value is recorded as 0.088. In addition, where the note is “37° C.”, the “optical density, ypt1-ts, 3.13” value is given as 0.11; the “optical density, ypt1-ts, 6.25” value was determined as 0.124; the “optical density, ypt1-ts, 12.5” value was 0.149; the “optical density, ypt1-ts, 25” value was found to be 0.211.

Turning to `CC(=O)O[C@@H]1CC2C(C)(C)CCC[C@]2(C)C2CC[C@]3(C)C(=CC(=O)O[C@H]3c3ccoc3)[C@@]21C` (stereo partly shown) [DEOXO- DEOXY- DIHYDRO- GEDUNIN], the “optical density, 3.13 uM” value under setting [1] was found to be 0.245. Moreover, the “optical density, 12.5 uM” value under setting [2] was 0.479. Also, the “optical density, 50 uM” value under setting [3] came out at 0.452.

With `CC1(C)C2CC(=O)O[C@@]3(C)C4=CC(=O)O[C@@H](c5ccoc5)[C@]4(C)CCC3[C@@]2(C)C=C[C@H]1O` (stereo partly shown) [DEOXY- ANDIROBIN LACTONE], the “optical density, 3.13 uM” value under setting [1] amounted to 0.723. In addition, under setting [2], the “optical density, 12.5 uM” value turned out to be 0.678. Moreover, the “optical density, 50 uM” value under setting [3] amounted to 0.642.

`CC(CCC(=O)O)[C@H]1CCC2C3CC[C@H]4C[C@H](O)CC[C@]4(C)C3C[C@H](O)[C@@]21C` (stereo partly shown) [DEOXY- CHOLIC ACID, reference compound]: the “optical density, 3.13 uM” value under setting [1] is recorded as 0.233. The “optical density, 12.5 uM” value under setting [2] is on record as 0.481. Further, under setting [3], the “optical density, 50 uM” value is on record as 0.133.

Take `CC(=O)O[C@@H]1CC2C(C)(C)C(=O)C=C[C@]2(C)C2CC[C@]3(C)C(=CC(=O)O[C@H]3c3ccoc3)[C@@]21C` (stereo partly shown) [DEOXY- GEDUNIN]: the “optical density, 3.13 uM” value under setting [1] was found to be 0.092. Further, under setting [2], the “optical density, 12.5 uM” value is recorded as 0.141. Also, the “optical density, 50 uM” value under setting [3] was found to be 0.328.

Regarding `COc1ccc2c(c1)OCC(Cc1ccc(OC)c(OC(C)=O)c1)C2=O` (stereo not shown) [DEOXY- SAPPANONE B 7,3′-DI- METHYL ETHER ACETATE], the “optical density, 3.13 uM” value under setting [1] amounted to 0.137. The “optical density, 12.5 uM” value under setting [2] was 0.17. The “optical density, 50 uM” value under setting [3] is on record as 0.374.

For the compound `COc1ccc2c(c1)OCC(Cc1ccc(OC)c(OC)c1)C2=O` (stereo not shown) [DEOXY- SAPPANONE B TRIMETHYL ETHER], the “optical density, 3.13 uM” value under setting [1] is 0.107. For the same compound, the “optical density, 12.5 uM” value under setting [2] worked out at 0.203. Further, the “optical density, 50 uM” value under setting [3] is 0.514.

For the compound `CC1(C)C2CC(=O)O[C@]3(C)C4=CC(=O)O[C@@H](c5ccoc5)[C@]4(C)CCC3[C@@]2(C)C=C[C@H]1O` (stereo partly shown) [DEOXYANDIROBIN- LACTONE], under “37° C.”, the minimal effective concentration worked out at 3.13 µM; the “optical density, ypt1-ts, 0.39” value is 0.107; the “optical density, ypt1-ts, 0.78” value is listed as 0.082; the “optical density, ypt1-ts, 1.56” value amounted to 0.089. Where the note is “37° C.”, the “optical density, ypt1-ts, 3.13” value came to 0.137; the “optical density, ypt1-ts, 6.25” value is recorded as 0.249; the “optical density, ypt1-ts, 12.5” value was 0.524; the “optical density, ypt1-ts, 25” value came to 0.613.

On to `O=C([O-])Cc1ccccc1Nc1c(Cl)cccc1Cl.[Na+]` [DICLOFENAC SODIUM, reference compound], for which, for the setting “37° C.”, the minimal effective concentration is 12.5 µM; the “optical density, ypt1-ts, 0.39” value turned out to be 0.085; the “optical density, ypt1-ts, 0.78” value came to 0.072; the “optical density, ypt1-ts, 1.56” value stood at 0.077. In addition, where the note is “37° C.”, the “optical density, ypt1-ts, 3.13” value came to 0.089; the “optical density, ypt1-ts, 6.25” value came to 0.092; the “optical density, ypt1-ts, 12.5” value was 0.126; the “optical density, ypt1-ts, 25” value stood at 0.242.

Regarding `C/C=C(/C(=C/C)c1ccc(O)cc1)c1ccc(O)cc1` [DIENESTROL, reference compound], under setting [1], the “optical density, 3.13 uM” value stood at 0.142. Also, the “optical density, 12.5 uM” value under setting [2] was determined as 0.309. The “optical density, 50 uM” value under setting [3] came to 0.044.

As to `CC/C(=C(/CC)c1ccc(O)cc1)c1ccc(O)cc1` [DIETHYLSTILBESTROL, reference compound], for the setting “37° C.”, the minimal effective concentration was 12.5 µM; the “optical density, ypt1-ts, 0.39” value is reported as 0.089; the “optical density, ypt1-ts, 0.78” value was 0.076; the “optical density, ypt1-ts, 1.56” value was determined as 0.091. In addition, where the note is “37° C.”, the “optical density, ypt1-ts, 3.13” value stood at 0.108; the “optical density, ypt1-ts, 6.25” value was 0.103; the “optical density, ypt1-ts, 12.5” value was 0.163; the “optical density, ypt1-ts, 25” value is given as 0.162.

In the case of `CC1(C)C(=O)CC[C@@]2(C)C1C[C@@H](O)[C@@]1(C)C3=CC(=O)O[C@@H](c4ccoc4)[C@]3(C)CCC21` (stereo partly shown) [DIHYDRO- 7- […]- OXYGEDUNIN], under setting [1], the “optical density, 3.13 uM” value was 0.197. Moreover, the “optical density, 12.5 uM” value under setting [2] came to 0.568. For the same compound, under setting [3], the “optical density, 50 uM” value worked out at 0.328.

Take `Cc1c(O)c(O)cc2c1CC=C1[C@@]2(C)CC[C@@]2(C)C3C[C@](C)(C(=O)O)CC[C@]3(C)CC[C@]12C` (stereo partly shown) [DIHYDRO- CELASTROL]: the “optical density, 3.13 uM” value under setting [1] was 0.119. In addition, the “optical density, 12.5 uM” value under setting [2] came out at 0.526. Moreover, under setting [3], the “optical density, 50 uM” value is reported as 0.33.

For the compound `COC(=O)C[C@H]1C(C)(C)[C@@H](OC(C)=O)[C@@H]2CC3C(CC[C@]4(C)C3CC(=O)O[C@H]4c3ccoc3)[C@]1(C)C2=O` (stereo partly shown) [DIHYDRO- FISSINOLIDE], the “optical density, 3.13 uM” value under setting [1] was determined as 0.079. In addition, the “optical density, 12.5 uM” value under setting [2] is recorded as 0.085. In addition, the “optical density, 50 uM” value under setting [3] was found to be 0.308.
